# Values of other authors, collected in patent publication US20070148689A1, “Compositions and methods for the prevention, treatment and detection of tuberculosis and other diseases” (priority 2000, published 2007).
# Key:
# CODH = CODH (Neomoorella thermoacetica, UniProt P27988)
# [1] = chelator by intraperitoneal injection shortly after oral or intraperitoneal administration of nickel
# [2] = 10% DTPA in an oil-in-water emulsion
# CO(L)-deficient CODH = CO(L)-deficient CODH (Rhodospirillum rubrum, UniProt P31896)
# Sequence of CO(L)-deficient CODH (P31896 whole entry): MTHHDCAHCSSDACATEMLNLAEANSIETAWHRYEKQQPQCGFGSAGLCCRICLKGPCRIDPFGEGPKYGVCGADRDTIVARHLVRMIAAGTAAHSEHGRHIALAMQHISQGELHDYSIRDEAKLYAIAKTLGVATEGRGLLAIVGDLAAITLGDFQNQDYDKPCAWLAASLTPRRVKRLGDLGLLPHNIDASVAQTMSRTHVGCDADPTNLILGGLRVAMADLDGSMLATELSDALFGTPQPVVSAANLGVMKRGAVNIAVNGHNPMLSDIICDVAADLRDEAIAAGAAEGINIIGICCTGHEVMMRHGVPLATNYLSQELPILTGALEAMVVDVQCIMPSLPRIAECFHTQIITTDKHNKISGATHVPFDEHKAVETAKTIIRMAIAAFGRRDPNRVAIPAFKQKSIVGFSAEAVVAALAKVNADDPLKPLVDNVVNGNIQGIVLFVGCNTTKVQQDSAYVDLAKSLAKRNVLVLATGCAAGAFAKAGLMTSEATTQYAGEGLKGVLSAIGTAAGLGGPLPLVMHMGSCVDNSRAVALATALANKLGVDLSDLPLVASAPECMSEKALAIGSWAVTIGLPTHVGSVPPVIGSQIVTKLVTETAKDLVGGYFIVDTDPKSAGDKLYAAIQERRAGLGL
# Sequence of CODH (P27989 whole entry): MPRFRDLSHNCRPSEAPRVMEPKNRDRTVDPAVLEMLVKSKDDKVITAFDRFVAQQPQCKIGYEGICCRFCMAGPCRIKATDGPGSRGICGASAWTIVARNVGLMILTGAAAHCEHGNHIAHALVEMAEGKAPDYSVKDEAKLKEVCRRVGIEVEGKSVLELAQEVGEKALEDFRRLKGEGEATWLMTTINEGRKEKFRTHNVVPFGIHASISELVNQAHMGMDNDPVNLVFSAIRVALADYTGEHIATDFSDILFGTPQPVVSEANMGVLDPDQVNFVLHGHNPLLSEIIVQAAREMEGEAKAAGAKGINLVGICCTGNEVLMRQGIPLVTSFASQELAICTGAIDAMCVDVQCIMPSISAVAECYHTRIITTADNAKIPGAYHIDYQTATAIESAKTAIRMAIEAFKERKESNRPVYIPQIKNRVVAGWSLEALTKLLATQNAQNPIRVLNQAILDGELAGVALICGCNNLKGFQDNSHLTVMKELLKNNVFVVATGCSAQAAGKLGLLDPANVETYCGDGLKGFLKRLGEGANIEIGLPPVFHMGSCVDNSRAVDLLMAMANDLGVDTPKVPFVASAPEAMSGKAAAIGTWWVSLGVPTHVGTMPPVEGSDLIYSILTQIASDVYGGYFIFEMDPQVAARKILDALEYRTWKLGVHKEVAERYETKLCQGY
# Sequence of CODH (P27988 whole entry): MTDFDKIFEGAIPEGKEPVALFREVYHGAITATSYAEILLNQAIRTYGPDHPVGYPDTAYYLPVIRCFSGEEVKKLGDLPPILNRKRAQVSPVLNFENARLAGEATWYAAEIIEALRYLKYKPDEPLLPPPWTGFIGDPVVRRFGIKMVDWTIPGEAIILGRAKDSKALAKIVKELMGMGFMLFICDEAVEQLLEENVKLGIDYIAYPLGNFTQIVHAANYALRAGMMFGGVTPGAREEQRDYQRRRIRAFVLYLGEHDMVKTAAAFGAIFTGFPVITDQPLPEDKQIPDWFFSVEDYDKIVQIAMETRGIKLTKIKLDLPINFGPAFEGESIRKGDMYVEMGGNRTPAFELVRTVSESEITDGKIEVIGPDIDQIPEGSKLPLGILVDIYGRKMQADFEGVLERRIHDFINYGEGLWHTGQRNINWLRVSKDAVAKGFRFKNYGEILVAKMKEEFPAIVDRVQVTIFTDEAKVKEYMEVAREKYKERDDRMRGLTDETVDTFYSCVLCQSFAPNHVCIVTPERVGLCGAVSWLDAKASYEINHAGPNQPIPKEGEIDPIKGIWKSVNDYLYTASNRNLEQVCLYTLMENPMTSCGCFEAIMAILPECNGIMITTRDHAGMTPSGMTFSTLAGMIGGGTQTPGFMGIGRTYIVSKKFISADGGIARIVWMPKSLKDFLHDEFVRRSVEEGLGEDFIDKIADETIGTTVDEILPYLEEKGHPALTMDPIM
compound,measurement,setting,value
"c1cnc2c(c1)ccc1cccnc12 [1,10phenanthroline]",Removal of the Ni ion in the A-cluster of CODH,CODH,selectively removed
same,Synthesis of acetyl-coenzyme A by CODH without this Ni,CODH; after Ni removal by the chelator,can't catalyze
"CCN(CC)C(=S)[S-].[Na+] [DDC, Sodium diethyldithiocarbamate]",Whole-body retention of nickel,[1],increased
"O=C(O)[C@@H](S)[C@@H](S)C(=O)O [DMSA, Meso-2,3-dimercaptosuccinic acid]",Water solubility,,water-soluble
same,Toxicity,orally-administered metal chelator,non-toxic
"O=C(O)CN(CCN(CC(=O)O)CC(=O)O)CCN(CC(=O)O)CC(=O)O [DTPA, diethylenetriaminepentaacetic acid]",Preventive effect in nickel-sensitized patients,[2],preventive effect
"CCN(CC)C(=S)SSC(=S)N(CC)CC [TTD, Tetraethylthiuram disulphide]",Whole-body retention of nickel,[1],increased
CC(=NO)C(C)=NO [dimethylglyoxime],Removal of Ni from CO(L)-deficient CODH by treatment,CO(L)-deficient CODH,can be removed
